Results as given in patent publication US20100291181A1, “THERAPEUTIC DEVICES FOR PATTERNED CELL GROWTH” (RUTGERS, THE STATE UNIVERSITY OF NEW JERSEY, priority 2002, published 2010).

Tests used:
[1] = tested on: primary rat Schwann cells; assay: Schwann cells plated on pattern of laminin lines, orientation analysis; type: cell-based
Protocol: Purified primary rat Schwann cells were obtained from Prof. M. B. Bunge, University of Miami, the Miami Project to Cure Paralysis, and maintained in tissue culture flasks with a growth media consisting of Dulbecco's Modified Eagle's Medium (DMEM, Sigma), 10% v/v fetal bovine serum (Gibco), L-glutamine (2 mM, BioWhittaker), penicillin/streptomycin (P/S, 50 U/mL/50 μg/mL, BioWhittaker), 10 μg/mL bovine pituitary extract (Collaborative), and 10 μM forskolin (Sigma).
Schwann cells were rinsed with phosphate buffered saline (PBS, BioWhittaker) and incubated with trypsin ([…], Sigma) for 3 min. An equal amount of serum containing media was added to deactivate the trypsin and the cells were concentrated by centrifugation. […]
The samples were imaged on a Zeiss LSM 410 confocal laser-scanning microscope (CLSM) with a computer controlled laser scanning assembly attached to the microscope using a 20× phase contrast objective in fluorescence mode. An Omnichrome 3 line Argon/Krypton laser (488, 568, 647 nm) was used as the excitation source for double fluorescence measurements, with excitation at 488 nm and 568 nm and emission at 512 nm and 605 nm. […]
Multiple images were taken randomly per sample and analyzed by Image Pro Plus image analysis software (Media Cybernetics). […] Major and minor axes were calculated as well as the angle created by the major axis and the direction of patterning (FIG. 7). […]

[2] = tested on: dorsal root ganglia or dissociated neurons; assay: Dorsal root ganglia or dissociated neurons plated on laminin pattern; type: cell-based, chick; details: pattern of lines, PMMA substrate
Source text: Biologically active molecules were stably adsorbed onto a polymeric substrate without chemical modification of the substrate and without the use of linkers. A nondegradable polymer, poly(methyl methylacrylate) (PMMA, […] thickness, Goodfellows) and a degradable polymer, such as poly(hydroxybutyrate (PHB), polycaprolactone or polycaprolactam), were used as polymeric substrates for application of a micropattern of laminin. See FIG. 2 for the general procedure. For these experiments, the polymers were compressed into thin films of 200 μm and cut to the size of coverslips. After activation, polymeric substrates were evaluated via x-ray photoelectron spectroscopy, and/or scanning electron microscopy. […] After laminin absorption, its deposition was determined by incubating the prepared slips with rabbit anti-laminin affinity isolated antibody and FITC-conjugated goat anti-rabbit IgG (see FIG. 3).
Dorsal root ganglia dissected from seven-day old chick embryos were either directly plated onto the patterned substrate or dissociated into individual neurons and plated. […]
The laminin stamped PMMA squares were rinsed with Hank's balanced saline solution and plated with dorsal root ganglia or dissociated neurons in minimal, serum-free media. The samples were incubated at 37° C. for 24 to 48 hours, imaged with a Zeiss laser scanning confocal microscope, and the images analyzed for pattern adherence. […]

laminin
orientation of Schwann cells relative to direction of laminin patterning (0°) ([1]; monolayer, ellipse fitting, FIG. 7): majority of the cells are oriented at 0° | process outgrowth along the pattern, Schwann cells ([1]; pattern of lines, FIG. 5): most neuronal processes adhere to and grow along the lines of the laminin pattern | neuronal process outgrowth along the pattern [2]: most neuronal processes adhere to and grow along the lines of the laminin pattern
